Assay results taken from patent US11986532B2 (Arvinas Operations, Inc., priority 2021, dated 2024).
Read-outs that look alike come from different tables or passages of the source.

Biological target: T1, BCL6 (Homo sapiens, UniProt P41182)
T1 construct: endogenous in cells; host or cells: T47D breast cancer epithelial cells
Assay: Immunofluorescence protocol for high content imaging of BCL6 (degradation) in T47D cells, 3 days compound treatment
Assay type: cell-based
Conditions: for Dmax: read-out: Mean Dmax (%)** category; for DC50: read-out: Mean DC50 (nM)* category
Outline: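 Read-out: high-content imaging of anti-BCL6 immunofluorescence (Alexa-488 secondary) with CellMask and Hoechst counterstains, 10×, 4 fields/well. Cells had 3 days of compound exposure at 37° C, 5% CO2, 11-point 3-fold series from a final top of 0.1 or 1 μM.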

[1] = T47D cells, 3 days compound treatment

DC50 [1] [nM]	Dmax [1] [%]	Compound	Dmax (T47D) [%]	DC50 [nM]
–	–	CNC(=O)COc1cc2cc(Nc3nc(N4CCC(O[C@H]5C[C@H](N6CC[C@H](c7ccc8c(c7F)CN(C7CCC(=O)NC7=O)C8=O)[C@H](O)C6)C5)CC4)ncc3Cl)ccc2n(C(C)C)c1=O (stereo partly drawn) [Compound 282, 2-({6-[(5-chloro-2-{4-[(1r,3r)-3-[(3S,4R)-4-[2-(2,6-dioxopiperidin-3-yl)-4-fluoro-1-oxo-2,3-dihydro-1H-isoindol-5-yl]-3-hydroxypiperidin-1-yl]cyclobutoxy]piperidin-1-yl}pyrimidin-4-yl)amino]-2-oxo-1-(propan-2-yl)-1,2-dihydroquinolin-3-yl}oxy)-N-methylacetamide]	50 to 70	< 10
< 10	50 to 70	CNC(=O)COc1cc2cc(Nc3nc(N4CCC(CN5CCC6(CC5)CN(c5cc(OC)c7c(c5)C(=O)N(C5CCC(=O)NC5=O)C7=O)C6)CC4)ncc3Cl)ccc2n(C(C)C)c1=O (stereo not shown) [Compound 83, 2-{[6-({5-chloro-2-[4-({2-[2-(2,6-dioxopiperidin-3-yl)-7-methoxy-1,3-dioxo-2,3-dihydro-1H-isoindol-5-yl]-2,7-diazaspiro [3.5]nonan-7-yl}methyl)piperidin-1-yl]pyrimidin-4-yl}amino)-2-oxo-1-(propan-2-yl)-1,2-dihydroquinolin-3-yl]oxy}-N-methylacetamide]	–	–
< 10	–	CNC(=O)COc1cc2cc(Nc3ncncc3Cl)ccc2n(CCOc2ccc3c(c2)C(=O)N(C2CCC(=O)NC2=O)C3=O)c1=O (stereo not shown) [Compound 146, 2-({6-[(5-chloropyrimidin-4-yl)amino]-1-(2-{[2-(2,6-dioxopiperidin-3-yl)-1,3-dioxo-2,3-dihydro-1H-isoindol-5-yl]oxy}ethyl)-2-oxo-1,2-dihydroquinolin-3-yl}oxy)-N-methylacetamide]	–	–
< 10	50 to 70	CNC(=O)COc1cc2cc(Nc3nc(N4CCC(CN5CCC6(CC(=O)N(c7ccc8c(c7)CN(C7CCC(=O)NC7=O)C8=O)C6)C5)CC4)ncc3Cl)ccc2n(C(C)C)c1=O (stereo not shown) [Compound 39, 2-{[6-({5-chloro-2-[4-({7-[2-(2,6-dioxopiperidin-3-yl)-1-oxo-2,3-dihydro-1H-isoindol-5-yl]-8-oxo-2,7-diazaspiro[4.4]nonan-2-yl}methyl)piperidin-1-yl]pyrimidin-4-yl}amino)-2-oxo-1-(propan-2-yl)-1,2-dihydroquinolin-3-yl]oxy}-N-methylacetamide]	–	–
–	–	CNC(=O)COc1cc2cc(Nc3nc(N4CCC(O[C@H]5C[C@H](N6CCN(c7ccc8c(c7C)CN(C7CCC(=O)NC7=O)C8=O)CC6)C5)CC4)ncc3Cl)ccc2n(C(C)C)c1=O (stereo partly shown) [Compound 416, 2-({6-[(5-chloro-2-{4-[(1r,3r)-3-{4-[2-(2,6-dioxopiperidin-3-yl)-4-methyl-1-oxo-2,3-dihydro-1H-isoindol-5-yl]piperazin-1-yl}cyclobutoxy]piperidin-1-yl}pyrimidin-4-yl)amino]-2-oxo-1-(propan-2-yl)-1,2-dihydroquinolin-3-yl}oxy)-N-methylacetamide]	≥ 70	< 10
–	–	CNC(=O)COc1cc2cc(Nc3nc(N4CCC(CN5CCC6(CN(c7ccc8c(c7)C(=O)N(C7CCC(=O)NC7=O)C8=O)C6)CC5(C)C)CC4)ncc3Cl)ccc2n(C(C)C)c1=O (stereo not shown) [Compound 239, 2-{[6-({5-chloro-2-[4-({2-[2-(2,6-dioxopiperidin-3-yl)-1,3-dioxo-2,3-dihydro-1H-isoindol-5-yl]-6,6-dimethyl-2,7-diazaspiro[3.5]nonan-7-yl}methyl)piperidin-1-yl]pyrimidin-4-yl}amino)-2-oxo-1-(propan-2-yl)-1,2-dihydroquinolin-3-yl]oxy}-N-methylacetamide]	≥ 70	< 10
–	–	CNC(=O)COc1cc2cc(Nc3nc(N4CCC(CN5CCN(c6ccc7c(c6)C(=O)N(C6CCC(=O)NC6=O)C7=O)CC5)CC4)ncc3Cl)ccc2n(C(C)C)c1=O (stereo not shown) [Compound 404, 2-{[6-({5-chloro-2-[4-({4-[2-(2,6-dioxopiperidin-3-yl)-1,3-dioxo-2,3-dihydro-1H-isoindol-5-yl]piperazin-1-yl}methyl)piperidin-1-yl]pyrimidin-4-yl}amino)-2-oxo-1-(propan-2-yl)-1,2-dihydroquinolin-3-yl]oxy}-N-methylacetamide]	50 to 70	10 to 50
